Assay results from patent publication US9040712B2, “Thiadiazole analogs thereof and methods for treating SMN-deficiency-related-conditions” (NOVARTIS AG, priority 2013, dated 2015).

System: SMN protein
Assay: cellular SMN ELISA (SMN protein elevation)
Format: cell-based
Details: myoblast cell line derived from SMNdelta7 mouse model; 24 hours compound treatment; concentration range 100 pM-10 uM
Summary of the method: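 Myoblasts derived from the SMNdelta7 mouse model, 3000 cells/well, treated with compound (100 pM–10 uM) for 24 h, then lysed in modified RIPA buffer. SMN protein quantified by sandwich ELISA (anti-SMN mAb capture, rabbit polyclonal detection, HRP/TMB, 450 nm). Results given as fold activation over DMSO and EC50.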

SMILES | EC50 [nM] | SMN Activity Fold (fold activation over DMSO control) [fold]
COc1cc(-c2ccn[nH]2)ccc1-c1nnc(N(C)C2CC(C)(C)NC(C)(C)C2)s1 [Example 73, 5-(2-methoxy-4-(1H-pyrazol-5-yl)phenyl)-N-methyl-N-(2,2,6,6-tetramethylpiperidin-4-yl)-1,3,4-thiadiazol-2-amine] | 110 | 2.73
COc1cc(-c2sc(C)nc2C)ccc1-c1nnc(N(C)C2CC(C)(C)NC(C)(C)C2)s1 [Example 74, 5-(4-(2,4-dimethylthiazol-5-yl)-2-methoxyphenyl)-N-methyl-N-(2,2,6,6-tetramethylpiperidin-4-yl)-1,3,4-thiadiazol-2-amine] | 85 | 2.64
COc1cc(-c2cccnc2)ccc1-c1nnc(N(C)C2CC(C)(C)NC(C)(C)C2)s1 [Example 75, 5-(2-methoxy-4-(pyridin-3-yl)phenyl)-N-methyl-N-(2,2,6,6-tetramethylpiperidin-4-yl)-1,3,4-thiadiazol-2-amine] | 235 | 2.44
CN(c1nnc(-c2ccc(-c3cn[nH]c3)cc2F)s1)C1CC(C)(C)NC(C)(C)C1 [Example 76, 5-(2-fluoro-4-(1H-pyrazol-4-yl)phenyl)-N-methyl-N-(2,2,6,6-tetramethylpiperidin-4-yl)-1,3,4-thiadiazol-2-amine] | 43 | 3.06
COc1cc(-c2ccc(-c3nnc(N(C)C4CC(C)(C)NC(C)(C)C4)s3)c(OC)c2)ccn1 [Example 77, 5-(2-methoxy-4-(2-methoxypyridin-4-yl)phenyl)-N-methyl-N-(2,2,6,6-tetramethyl-piperidin-4-yl)-1,3,4-thiadiazol-2-amine] | 52 | 3.33
COc1ccc(-c2ccc(-c3nnc(N(C)C4CC(C)(C)NC(C)(C)C4)s3)c(OC)c2)cn1 [Example 78, 5-(2-methoxy-4-(6-methoxypyridin-3-yl)phenyl)-N-methyl-N-(2,2,6,6-tetramethyl-piperidin-4-yl)-1,3,4-thiadiazol-2-amine] | 165 | 2.52
CN1C[C@@H]2CN(c3nnc(-c4ccc(-c5cnn(C)c5)cc4Cl)s3)C[C@@H]2C1 [Example 79, 2-(2-chloro-4-(1-methyl-1H-pyrazol-4-yl)phenyl)-5-((3aR,6aS)-5-methylhexahydropyrrolo[3,4-c]pyrrol-2(1H)-yl)-1,3,4-thiadiazole] | 150 | 2.76
CN1C[C@@H]2CN(c3nnc(-c4ccc(-c5cn[nH]c5)cc4Cl)s3)C[C@@H]2C1 [Example 80, 2-(2-chloro-4-(1H-pyrazol-4-yl)phenyl)-5-((3aR,6aS)-5-methylhexahydropyrrolo[3,4-c]pyrrol-2(1H)-yl)-1,3,4-thiadiazole] | 149 | 2.70
CN1CC[C@@H]2CN(c3nnc(-c4ccc(-c5cn[nH]c5)cc4Cl)s3)C[C@@H]21 [Example 81, 2-(2-chloro-4-(1H-pyrazol-4-yl)phenyl)-5-((3aR,6aR)-1-methylhexahydropyrrolo[3,4-b]pyrrol-5(1H)-yl)-1,3,4-thiadiazole] | 1540 | 2.38
CN(C)CC1CN(c2nnc(-c3ccc(-c4cn[nH]c4)cc3Cl)s2)CCO1 (stereo not shown) [Example 82, 1-(4-(5-(2-chloro-4-(1H-pyrazol-4-yl)phenyl)-1,3,4-thiadiazol-2-yl)morpholin-2-yl)-N,N-dimethylmethanamine] | 994 | 2.50
CN1CCC2(CCCN(c3nnc(-c4ccc(-c5cn[nH]c5)cc4Cl)s3)C2)C1 (stereo not shown) [Example 83, 2-(2-chloro-4-(1H-pyrazol-4-yl)phenyl)-5-(2-methyl-2,7-diazaspiro[4.5]decan-7-yl)-1,3,4-thiadiazole] | 3280 | 2.59
CN1C[C@@H]2CN(c3nnc(-c4ccc(-c5cn[nH]c5)cc4F)s3)C[C@@H]2C1 [Example 84, 2-(2-fluoro-4-(1H-pyrazol-4-yl)phenyl)-5-((3aR,6aS)-5-methylhexahydropyrrolo[3,4-c]pyrrol-2(1H)-yl)-1,3,4-thiadiazole] | 193 | 2.11
COc1cc(-c2cnn(C)c2)ccc1-c1nnc(N2CC3(CCCNC3)C2)s1 [Example 85, 2-(2-methoxy-4-(1-methyl-1H-pyrazol-4-yl)phenyl)-5-(2,6-diazaspiro[3.5]nonan-2-yl)-1,3,4-thiadiazole] | 282 | 2.22
COc1cc(-c2cnn(C)c2)ccc1-c1nnc(N2CC3(CCNCC3)C2)s1 [Example 86, 2-(2-methoxy-4-(1-methyl-1H-pyrazol-4-yl)phenyl)-5-(2,7-diazaspiro[3.5]nonan-2-yl)-1,3,4-thiadiazole] | 152 | 2.33
CN(c1nnc(-c2ccc(-n3cccn3)cc2O)s1)C1CC(C)(C)NC(C)(C)C1 [Example 87, 2-(5-(methyl(2,2,6,6-tetramethylpiperidin-4-yl)amino)-1,3,4-thiadiazol-2-yl)-5-(1H-pyrazol-1-yl)phenol] | 171 | 2.76
CN(c1nnc(-c2ccc(-c3ccc(=O)[nH]c3)cc2Cl)s1)C1CC(C)(C)NC(C)(C)C1 [Example 88, 5-(3-chloro-4-(5-(methyl(2,2,6,6-tetramethylpiperidin-4-yl)amino)-1,3,4-thiadiazol-2-yl)phenyl)pyridin-2(1H)-one] | 160 | 2.22
CNc1ccn(-c2ccc(-c3nnc(N(C)C4CC(C)(C)NC(C)(C)C4)s3)c(O)c2)n1 [Example 89, 2-(5-(methyl(2,2,6,6-tetramethylpiperidin-4-yl)amino)-1,3,4-thiadiazol-2-yl)-5-(3-(methylamino)-1H-pyrazol-1-yl)phenol] | 106 | 2.85
CN(c1nnc(-c2c(O)cc(-c3cn[nH]c3)cc2F)s1)C1CC(C)(C)NC(C)(C)C1 [Example 90, 3-fluoro-2-(5-(methyl(2,2,6,6-tetramethylpiperidin-4-yl)amino)-1,3,4-thiadiazol-2-yl)-5-(1H-pyrazol-4-yl)phenol] | 6 | 2.57
CN(c1nnc(-c2c(O)cc(-c3cn[nH]c3)c(F)c2F)s1)C1CC(C)(C)NC(C)(C)C1 [Example 91, 3,4-difluoro-2-(5-(methyl(2,2,6,6-tetramethylpiperidin-4-yl)amino)-1,3,4-thiadiazol-2-yl)-5-(1H-pyrazol-4-yl)phenol] |  | 2.67
